Assay results as given in patent US20090131470A1, “PYRAZOLE-SUBSTITUTED BENZIMIDAZOLE DERIVATIVES FOR USE IN THE TREATMENT OF CANCER AND AUTOIMMUNE DISORDERS” (priority 2005, published 2009).

How the values were obtained:
Format in all cases: biochemical
[1] = molecular target: FGFR4 (Homo sapiens, UniProt P22455); test: Kinase selectivity screening (example 14)
[2] = molecular target: Syk (Homo sapiens, UniProt P43405); test: Kinase selectivity screening (example 14)
[3] = molecular target: T1, GST-Chk1 enzyme (Homo sapiens, UniProt O14757); test: Chk1 kinase assay (33P Chktide phosphorylation); conditions: 0.01 mM ATP, 40 minutes at 30° C.; read-out: CHK-1 IC50
T1 sequence (O14757 1-476): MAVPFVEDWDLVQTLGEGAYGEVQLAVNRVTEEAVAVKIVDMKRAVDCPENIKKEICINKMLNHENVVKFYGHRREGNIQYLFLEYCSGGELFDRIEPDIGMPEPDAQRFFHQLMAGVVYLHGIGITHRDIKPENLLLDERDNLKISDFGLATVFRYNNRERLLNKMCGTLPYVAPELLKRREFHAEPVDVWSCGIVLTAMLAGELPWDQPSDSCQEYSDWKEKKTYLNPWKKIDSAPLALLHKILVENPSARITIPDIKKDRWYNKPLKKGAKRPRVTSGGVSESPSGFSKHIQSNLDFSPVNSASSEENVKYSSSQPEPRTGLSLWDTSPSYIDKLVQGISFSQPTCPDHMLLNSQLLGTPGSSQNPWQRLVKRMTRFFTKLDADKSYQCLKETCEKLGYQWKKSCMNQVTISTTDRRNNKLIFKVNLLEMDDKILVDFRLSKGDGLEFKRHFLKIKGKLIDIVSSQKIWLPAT

[4] = molecular target: EGFR (Homo sapiens, UniProt P00533); test: Kinase selectivity screening (example 14)
Sequence of EGFR (P00533 25-1210): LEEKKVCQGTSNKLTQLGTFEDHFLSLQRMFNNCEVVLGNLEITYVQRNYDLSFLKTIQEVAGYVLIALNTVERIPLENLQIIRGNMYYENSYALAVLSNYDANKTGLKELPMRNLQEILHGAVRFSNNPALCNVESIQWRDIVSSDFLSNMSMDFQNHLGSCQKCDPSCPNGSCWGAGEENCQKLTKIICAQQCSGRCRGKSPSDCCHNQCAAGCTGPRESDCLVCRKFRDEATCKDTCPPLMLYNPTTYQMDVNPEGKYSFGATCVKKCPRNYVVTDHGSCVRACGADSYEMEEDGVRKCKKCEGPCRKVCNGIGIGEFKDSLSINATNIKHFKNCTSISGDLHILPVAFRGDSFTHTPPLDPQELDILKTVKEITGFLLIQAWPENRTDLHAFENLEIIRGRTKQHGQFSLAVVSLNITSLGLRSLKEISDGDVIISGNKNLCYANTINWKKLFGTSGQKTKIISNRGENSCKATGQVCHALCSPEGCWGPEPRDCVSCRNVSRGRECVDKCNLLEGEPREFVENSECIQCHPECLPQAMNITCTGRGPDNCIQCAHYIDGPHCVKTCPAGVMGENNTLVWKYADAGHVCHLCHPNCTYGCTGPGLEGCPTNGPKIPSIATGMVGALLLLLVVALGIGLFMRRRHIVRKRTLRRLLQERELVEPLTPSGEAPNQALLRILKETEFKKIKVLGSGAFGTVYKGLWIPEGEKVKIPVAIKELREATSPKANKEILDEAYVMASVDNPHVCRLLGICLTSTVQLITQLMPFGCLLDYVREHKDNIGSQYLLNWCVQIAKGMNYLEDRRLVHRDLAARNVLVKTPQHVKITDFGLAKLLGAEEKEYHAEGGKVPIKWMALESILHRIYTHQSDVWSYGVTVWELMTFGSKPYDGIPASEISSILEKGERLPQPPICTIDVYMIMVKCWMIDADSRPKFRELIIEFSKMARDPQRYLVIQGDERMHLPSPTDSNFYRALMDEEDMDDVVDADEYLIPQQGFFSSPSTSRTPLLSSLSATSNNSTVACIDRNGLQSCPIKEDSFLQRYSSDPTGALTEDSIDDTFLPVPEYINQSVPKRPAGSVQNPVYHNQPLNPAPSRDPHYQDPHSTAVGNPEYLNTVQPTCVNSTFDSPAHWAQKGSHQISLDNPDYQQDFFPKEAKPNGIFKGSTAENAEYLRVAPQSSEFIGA

[5] = molecular target: T2, ITK (Homo sapiens, UniProt Q08881); test: Kinase selectivity screening (example 14)
T2 sequence (Q08881 1-620): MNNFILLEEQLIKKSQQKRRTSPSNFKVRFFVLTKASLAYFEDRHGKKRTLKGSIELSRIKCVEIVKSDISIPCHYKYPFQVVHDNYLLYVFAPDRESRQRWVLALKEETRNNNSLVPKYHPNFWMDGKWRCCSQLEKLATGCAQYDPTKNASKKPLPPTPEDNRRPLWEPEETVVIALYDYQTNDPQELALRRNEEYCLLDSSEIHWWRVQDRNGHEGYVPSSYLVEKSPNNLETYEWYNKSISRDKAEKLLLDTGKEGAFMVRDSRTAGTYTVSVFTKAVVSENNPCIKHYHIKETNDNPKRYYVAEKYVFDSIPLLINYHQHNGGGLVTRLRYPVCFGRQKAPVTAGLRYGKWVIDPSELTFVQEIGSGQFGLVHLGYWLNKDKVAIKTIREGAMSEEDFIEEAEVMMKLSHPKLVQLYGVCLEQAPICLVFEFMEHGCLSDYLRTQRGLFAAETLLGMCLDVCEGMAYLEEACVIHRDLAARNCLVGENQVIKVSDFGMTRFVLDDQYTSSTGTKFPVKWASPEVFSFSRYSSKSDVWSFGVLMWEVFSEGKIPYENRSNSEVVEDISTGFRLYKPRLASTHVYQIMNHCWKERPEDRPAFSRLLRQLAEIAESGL

[6] = molecular target: T3, Akt1 (Homo sapiens, UniProt P31749); test: Akt1 kinase assay (Histone H1 substrate); conditions: 200 μM ATP, read-out: AKT-1 IC50
T3 construct: purchased Upstate
T3 sequence (P31749 whole entry, species assumed): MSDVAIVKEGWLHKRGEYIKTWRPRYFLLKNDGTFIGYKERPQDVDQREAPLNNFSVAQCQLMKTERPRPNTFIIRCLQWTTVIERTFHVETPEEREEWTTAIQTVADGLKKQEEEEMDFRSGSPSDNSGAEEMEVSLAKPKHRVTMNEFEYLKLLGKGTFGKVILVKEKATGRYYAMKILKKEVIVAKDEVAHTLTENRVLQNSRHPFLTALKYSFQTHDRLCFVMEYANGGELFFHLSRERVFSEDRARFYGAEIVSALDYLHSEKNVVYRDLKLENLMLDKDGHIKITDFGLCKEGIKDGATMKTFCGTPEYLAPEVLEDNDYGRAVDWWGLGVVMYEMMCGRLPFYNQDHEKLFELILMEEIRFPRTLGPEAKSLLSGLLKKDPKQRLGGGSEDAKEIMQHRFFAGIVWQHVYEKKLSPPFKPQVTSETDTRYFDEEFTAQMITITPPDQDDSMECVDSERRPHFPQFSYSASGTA

[7] = molecular target: KDR (Homo sapiens, UniProt P35968); test: Kinase selectivity screening (example 14)
Sequence of KDR (P35968 20-1356, species assumed): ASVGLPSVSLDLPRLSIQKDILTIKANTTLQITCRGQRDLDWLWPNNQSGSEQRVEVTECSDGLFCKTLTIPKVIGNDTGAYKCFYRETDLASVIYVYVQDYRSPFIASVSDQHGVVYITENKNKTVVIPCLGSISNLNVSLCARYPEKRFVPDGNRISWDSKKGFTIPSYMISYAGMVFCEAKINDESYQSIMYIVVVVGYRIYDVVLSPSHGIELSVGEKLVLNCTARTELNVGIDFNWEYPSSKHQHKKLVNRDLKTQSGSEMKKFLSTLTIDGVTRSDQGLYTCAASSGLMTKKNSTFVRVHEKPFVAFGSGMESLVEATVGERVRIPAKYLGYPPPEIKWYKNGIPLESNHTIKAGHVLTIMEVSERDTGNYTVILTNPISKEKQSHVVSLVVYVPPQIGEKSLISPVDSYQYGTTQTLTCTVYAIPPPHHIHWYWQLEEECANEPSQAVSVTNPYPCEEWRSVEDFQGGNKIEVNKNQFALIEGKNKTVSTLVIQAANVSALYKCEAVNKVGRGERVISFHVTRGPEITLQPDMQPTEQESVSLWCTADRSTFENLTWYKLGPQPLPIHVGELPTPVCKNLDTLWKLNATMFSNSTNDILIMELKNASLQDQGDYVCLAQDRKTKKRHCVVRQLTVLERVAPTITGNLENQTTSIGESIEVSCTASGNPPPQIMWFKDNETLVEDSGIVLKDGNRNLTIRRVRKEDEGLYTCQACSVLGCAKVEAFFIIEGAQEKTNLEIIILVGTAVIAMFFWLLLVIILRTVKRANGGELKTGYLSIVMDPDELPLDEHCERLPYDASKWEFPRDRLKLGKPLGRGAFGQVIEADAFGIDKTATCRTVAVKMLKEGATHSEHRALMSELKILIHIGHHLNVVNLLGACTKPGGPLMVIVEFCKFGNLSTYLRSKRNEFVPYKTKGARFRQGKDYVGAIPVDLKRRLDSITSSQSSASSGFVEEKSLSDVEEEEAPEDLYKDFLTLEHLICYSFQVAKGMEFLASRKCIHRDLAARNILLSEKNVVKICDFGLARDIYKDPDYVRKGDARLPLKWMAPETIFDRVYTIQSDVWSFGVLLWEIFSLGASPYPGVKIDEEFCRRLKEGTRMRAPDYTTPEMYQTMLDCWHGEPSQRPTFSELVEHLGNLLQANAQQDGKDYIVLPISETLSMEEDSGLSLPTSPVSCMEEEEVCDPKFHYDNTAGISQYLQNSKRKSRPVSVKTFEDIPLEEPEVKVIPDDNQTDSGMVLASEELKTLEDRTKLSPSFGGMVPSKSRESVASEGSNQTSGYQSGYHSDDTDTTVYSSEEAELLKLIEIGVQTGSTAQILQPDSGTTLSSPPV

Sequence of FGFR4 (P22455 22-802, species assumed): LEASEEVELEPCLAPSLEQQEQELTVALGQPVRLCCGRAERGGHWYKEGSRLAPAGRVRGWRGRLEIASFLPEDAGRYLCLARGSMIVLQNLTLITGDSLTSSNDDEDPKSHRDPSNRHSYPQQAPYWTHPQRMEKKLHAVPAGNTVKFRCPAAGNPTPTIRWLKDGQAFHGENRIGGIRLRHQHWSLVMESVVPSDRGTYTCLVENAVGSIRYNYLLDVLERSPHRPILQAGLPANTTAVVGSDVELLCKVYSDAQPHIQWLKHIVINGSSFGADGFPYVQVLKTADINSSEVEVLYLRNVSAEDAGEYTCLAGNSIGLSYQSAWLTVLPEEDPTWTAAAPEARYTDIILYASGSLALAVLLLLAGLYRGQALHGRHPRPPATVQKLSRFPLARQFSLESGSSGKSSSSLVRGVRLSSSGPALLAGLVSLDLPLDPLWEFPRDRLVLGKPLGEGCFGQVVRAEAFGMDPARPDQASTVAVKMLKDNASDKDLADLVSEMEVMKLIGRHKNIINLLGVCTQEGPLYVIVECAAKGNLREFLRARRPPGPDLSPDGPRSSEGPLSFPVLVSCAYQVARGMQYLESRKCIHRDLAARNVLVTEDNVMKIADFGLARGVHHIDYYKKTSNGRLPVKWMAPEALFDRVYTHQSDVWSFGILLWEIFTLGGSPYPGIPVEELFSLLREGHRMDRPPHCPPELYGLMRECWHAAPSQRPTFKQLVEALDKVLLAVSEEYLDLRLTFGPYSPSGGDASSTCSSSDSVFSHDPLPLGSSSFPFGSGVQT

Cc1[nH]nc(-c2nc3cc4cn[nH]c4cc3[nH]2)c1C(=O)NC1CCNCC1 [Example 14]
selectivity versus FGFR4 [1]: > 20 fold
selectivity versus Syk [2]: > 20 fold
IC50 [3]: 0.006 µM
selectivity versus EGFR [4]: > 20 fold
selectivity versus ITK [5]: > 20 fold
IC50 [6]: 26.8 µM
selectivity versus KDR [7]: > 20 fold
